Data as given in paper PMC6421704 (Journal of Experimental & Clinical Cancer Research : CR, 2019).
“Also recorded” adds a separate entry of the source. Read-outs that look alike come from different tables or passages of the source.

Legend:
[1] = system: c-Met and TrkB coexpressing cell lines (c-Met^hiTrkB^hi); test: Cell growth of c-Met and TrkB coexpressing cell lines; assay type: cell-based; details: Homo sapiens, read-out: IC50 value, range over cell lines
RET = RET (Homo sapiens, UniProt P07949); test: In vitro kinase activity assay (HDB Kinase Selectivity Profiling); assay type: biochemical; details: Kinase Glo Plus assay format
Ba/F3-TrkB cells = test: BDNF-induced growth of TrkB-transfected Ba/F3 cells; details: BDNF 50 ng/ml 48 h, dose-dependent
Description: Cell proliferation was measured and the proliferation index was calculated. […] Data are shown as the mean ± S.D. and are representative of three independent experiments. ** p < 0.01, *** p < 0.001.

[2] = system: c-Met^loTrkB^hi and c-Met^loTrkB^lo cells; test: Cell growth of cells expressing TrkB alone or both low; assay type: cell-based; details: Homo sapiens, read-out: IC50 value, range over cell lines
[3] = system: orthotopic HepG2 cell xenografts; test: Orthotopic HepG2 cell xenografts (liver orthotopic mouse model)
IGF1R = IGF1R (Homo sapiens, UniProt P08069); test: In vitro kinase activity assay (HDB Kinase Selectivity Profiling); assay type: biochemical; details: Kinase Glo Plus assay format
Chain of IGF1R (P08069 31-1367): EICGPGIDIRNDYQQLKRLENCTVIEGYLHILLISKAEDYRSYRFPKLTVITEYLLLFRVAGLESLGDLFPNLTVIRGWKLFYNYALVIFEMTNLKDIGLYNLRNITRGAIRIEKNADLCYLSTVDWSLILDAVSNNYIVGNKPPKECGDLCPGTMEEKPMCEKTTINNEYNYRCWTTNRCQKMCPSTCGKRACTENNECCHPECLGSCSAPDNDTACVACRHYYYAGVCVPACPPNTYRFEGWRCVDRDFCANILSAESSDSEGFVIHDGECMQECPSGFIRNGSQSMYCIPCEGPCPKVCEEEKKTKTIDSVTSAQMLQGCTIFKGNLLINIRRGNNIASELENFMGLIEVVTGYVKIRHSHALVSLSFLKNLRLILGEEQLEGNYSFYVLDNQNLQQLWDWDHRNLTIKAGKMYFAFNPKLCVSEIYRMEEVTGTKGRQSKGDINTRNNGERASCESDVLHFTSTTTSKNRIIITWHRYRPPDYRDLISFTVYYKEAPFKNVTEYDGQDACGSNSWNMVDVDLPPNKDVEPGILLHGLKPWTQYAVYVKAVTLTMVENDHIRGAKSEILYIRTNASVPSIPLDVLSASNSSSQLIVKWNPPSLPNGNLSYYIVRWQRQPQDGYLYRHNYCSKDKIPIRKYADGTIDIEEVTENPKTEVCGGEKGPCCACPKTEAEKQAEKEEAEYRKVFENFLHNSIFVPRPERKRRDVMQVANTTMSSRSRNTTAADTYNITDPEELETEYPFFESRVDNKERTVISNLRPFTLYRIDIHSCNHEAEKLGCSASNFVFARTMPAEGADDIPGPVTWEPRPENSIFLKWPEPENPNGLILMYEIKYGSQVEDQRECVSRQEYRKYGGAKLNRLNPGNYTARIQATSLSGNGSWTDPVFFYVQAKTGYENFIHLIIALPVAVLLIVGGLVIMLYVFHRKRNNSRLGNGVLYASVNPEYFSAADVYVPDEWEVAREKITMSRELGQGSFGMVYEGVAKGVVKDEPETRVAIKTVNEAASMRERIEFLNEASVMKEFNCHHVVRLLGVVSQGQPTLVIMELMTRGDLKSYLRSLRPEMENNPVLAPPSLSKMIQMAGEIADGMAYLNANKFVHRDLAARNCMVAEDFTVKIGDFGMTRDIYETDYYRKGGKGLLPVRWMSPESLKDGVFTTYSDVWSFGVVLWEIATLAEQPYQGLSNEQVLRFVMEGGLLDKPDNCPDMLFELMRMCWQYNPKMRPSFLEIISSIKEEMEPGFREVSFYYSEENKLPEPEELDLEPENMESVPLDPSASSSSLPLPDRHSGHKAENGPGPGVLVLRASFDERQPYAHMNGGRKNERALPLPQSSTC

C-KIT = C-KIT (Homo sapiens, UniProt P10721); test: In vitro kinase activity assay (Caliper assay format); assay type: biochemical
HepG2 cells [4] = test: HepG2 cell proliferation under HGF migration conditions (MTS assay); assay type: cell-based, human
Description: (§1) All experiments were conducted three times.
Figure S2. […] Cell proliferation was anaylzed with MTS assay.

FLT1 = FLT1 (Homo sapiens, UniProt P17948); test: In vitro kinase activity assay (HDB Kinase Selectivity Profiling); assay type: biochemical; details: Kinase Glo Plus assay format
Chain of FLT1 (P17948 27-1338): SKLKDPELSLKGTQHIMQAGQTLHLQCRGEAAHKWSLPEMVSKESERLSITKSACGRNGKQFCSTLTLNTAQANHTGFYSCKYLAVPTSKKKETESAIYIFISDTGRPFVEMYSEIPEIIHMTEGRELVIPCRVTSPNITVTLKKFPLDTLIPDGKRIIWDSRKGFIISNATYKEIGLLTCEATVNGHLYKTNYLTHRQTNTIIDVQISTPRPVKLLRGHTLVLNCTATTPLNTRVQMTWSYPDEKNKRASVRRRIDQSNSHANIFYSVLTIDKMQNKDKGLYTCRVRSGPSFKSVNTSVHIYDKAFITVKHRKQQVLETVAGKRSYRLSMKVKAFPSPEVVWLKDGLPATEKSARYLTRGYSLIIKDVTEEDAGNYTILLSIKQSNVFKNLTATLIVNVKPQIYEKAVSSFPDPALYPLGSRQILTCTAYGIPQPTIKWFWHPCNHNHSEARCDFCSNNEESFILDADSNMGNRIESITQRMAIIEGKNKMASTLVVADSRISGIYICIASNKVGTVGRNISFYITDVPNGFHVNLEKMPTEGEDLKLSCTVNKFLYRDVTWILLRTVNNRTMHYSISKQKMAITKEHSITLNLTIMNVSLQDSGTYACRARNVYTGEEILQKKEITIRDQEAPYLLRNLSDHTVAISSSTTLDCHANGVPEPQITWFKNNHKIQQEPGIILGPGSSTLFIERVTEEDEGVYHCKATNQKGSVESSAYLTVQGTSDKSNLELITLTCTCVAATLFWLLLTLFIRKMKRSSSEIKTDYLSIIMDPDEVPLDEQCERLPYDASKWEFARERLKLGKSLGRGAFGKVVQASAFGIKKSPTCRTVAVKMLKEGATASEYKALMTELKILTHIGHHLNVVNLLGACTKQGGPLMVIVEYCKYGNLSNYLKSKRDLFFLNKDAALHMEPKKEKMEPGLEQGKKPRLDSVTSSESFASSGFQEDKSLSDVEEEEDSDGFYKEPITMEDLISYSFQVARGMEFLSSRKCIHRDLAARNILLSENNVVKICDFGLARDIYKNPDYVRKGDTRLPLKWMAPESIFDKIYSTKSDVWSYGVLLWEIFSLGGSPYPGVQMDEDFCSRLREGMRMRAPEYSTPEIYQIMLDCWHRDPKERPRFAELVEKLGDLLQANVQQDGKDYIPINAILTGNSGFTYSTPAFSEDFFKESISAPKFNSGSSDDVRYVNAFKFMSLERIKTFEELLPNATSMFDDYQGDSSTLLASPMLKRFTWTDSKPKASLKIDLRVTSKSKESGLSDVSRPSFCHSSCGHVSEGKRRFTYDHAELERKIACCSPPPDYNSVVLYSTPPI

c-Met signaling pathway = test: HGF-induced c-Met signaling pathway activation in HepG2 cells (Western blot)
Description: (a) HepG2 cells were treated with HGF (10 ng/ml) alone or HGF (10 ng/ml) and BDNF (10 ng/ml) for the indicated time and the activation of c-Met signaling pathway was examined.
(§3) For western blots, cells were lysed with M-PER? Mammalian Protein Extraction Reagent (Pierce, Rockford, IL, USA). Then, western blot analysis was performed according to standard procedures. Chemiluminescent detection was conducted using supersignal substrate (Pierce) according to the manufacturer’s specifications.

EPHA1 = EPHA1 (Homo sapiens, UniProt P21709); test: In vitro kinase activity assay (HDB Kinase Selectivity Profiling); assay type: biochemical; details: Kinase Glo Plus assay format
[5] = Cytotoxicity in non-cancerous cells; assay type: cell-based; details: human
MDCK cells [6] = test: MDCK cell proliferation (MTS assay); assay type: cell-based, Canine; details: scattering conditions
Description: as §1
Figure S1. […] Cell proliferation was anaylzed with MTS assay.

HepG2 cells [7] = test: HGF-induced HepG2 cell migration (Transwell); details: HepG2, HGF 20 ng/ml, 24 h, dose-dependent
Description: (§4) For the migration assay, 2×10^5 cells were seeded on 8µm polycarbonate membrane (Transwell; Costar). […] After 24h migration cells were counted.

C-KIT(v654A) = C-KIT(v654A) (Homo sapiens, UniProt P10721, V654A); test: In vitro kinase activity assay (Caliper assay format); assay type: biochemical
Half-life in plasma = assay type: in vitro ADME; details: data not shown
orthotopic tumors = test: Histological examination of liver from mice bearing orthotopic tumors (H&E); assay type: in vivo; details: 48 mg/kg Indo5
From the text: Figure S8. H&E staining of livers from mice bearing orthotopic tumors treated with the vehicle or Indo5.

HCC-LM3 = test: Inhibition of cell proliferation (MTS assay); assay type: cell-based; details: Homo sapiens, HCCLM3, HCC-LM3, c-Met^hiTrkB^hi, 72 h
Description: as §1

SMMC-7721 = test: Inhibition of cell proliferation (MTS assay); assay type: cell-based; details: Homo sapiens, SMMC-7721, c-Met^loTrkB^hi, 72 h
Description: as §1

SK-N-SH = test: Inhibition of cell proliferation (MTS assay); assay type: cell-based; details: Homo sapiens, c-Met^loTrkB^hi, 72 h
Description: as §1

MRC-5 = test: Inhibition of cell proliferation (MTS assay); assay type: cell-based; details: Homo sapiens, MRC5, MRC-5, c-Met^loTrkB^lo (non-cancerous cells), 72 h
Description: as §1

BEL-7402 = test: Inhibition of cell proliferation (MTS assay); assay type: cell-based; details: Homo sapiens, BEL-7402, c-Met^loTrkB^lo, 72 h
Description: as §1

NCI-H460 = test: Inhibition of cell proliferation (MTS assay); assay type: cell-based; details: Homo sapiens, NCI-H460, c-Met^loTrkB^lo, 72 h
Description: as §1

L02 = test: Inhibition of cell proliferation (MTS assay); assay type: cell-based; details: Homo sapiens, L02, c-Met^hiTrkB^lo (non-cancerous cells), 72 h
Description: as §1

A549 = test: Inhibition of cell proliferation (MTS assay); assay type: cell-based; details: Homo sapiens, A549, c-Met^hiTrkB^hi, 72 h
Description: as §1

HepG2 cells [8] = test: BDNF-induced HepG2 cell migration; details: HepG2, BDNF 50 ng/ml, 24 h
Description: as §4

[9] = system: HepG2 cell line tumor xenografts; test: HepG2 xenograft tumor model in nude mice; assay type: in vivo
Description: First, 2 × 10^6 HepG2 cells, 4 × 10^6 MHCC 97H cells, 4 × 10^6MHCC 97 L cells, 2 × 10^6 A549 cells, or 5 × 10^6 SMMC-7721 cells in a volume of 200 μl PBS were inoculated subcutaneously in the right flank of each mouse. Tumor growth was measured using vernier calipers, and tumor volume (mm^3) was calculated as (L × W × H)/2. When the mean tumor volume reached 200 mm^3, the mice were randomized into four groups and treatment was initiated. […] Tumor volume were recorded every 3 days until the study was terminated. The mice were sacrificed after 21 days of treatment.
The inhibition rate was calculated.
The tumor weights were measured, and the inhibition rate was calculated. Data are shown as the mean ± S.D. and are representative of three independent experiments. **p < 0.01, ***p < 0.001

mouse hepatocytes = test: HGF-induced proliferation of mouse hepatocytes (MTS assay)
[10] = system: HGF-induced vasculature formation; test: Matrigel plug assay, HGF-induced angiogenesis in vivo; design: species or system BALB/c mice; details: Matrigel plug with HGF (50 ng/ml) and Indo5 (10 μM, 20 μM), 7 days
Description: After 7 days, mice were sacrificed and the Matrigel plugs were fixed in 10% buffered formaldehyde, which was embedded in paraffin, and sectioned. The sections were stained with hematoxylin and eosin(H&E). H&E staining was performed to identify the formation and infiltration of new, functional microvessles.

[11] = system: HepG2 cell line tumor xenografts; test: TUNEL staining of HepG2 tumor xenografts; assay type: in vivo, nude mice; details: HepG2 xenograft, Indo5-treated
InsR = InsR (Homo sapiens, UniProt P06213); test: In vitro kinase activity assay (HDB Kinase Selectivity Profiling); assay type: biochemical; details: Kinase Glo Plus assay format
Ba/F3-Tpr-Met cells [12] = test: cells; details: Mus musculus, read-out: IC50 of IL-3-independent growth
EGFR = EGFR (Homo sapiens, UniProt P00533); test: In vitro kinase activity assay (HDB Kinase Selectivity Profiling); assay type: biochemical; details: Kinase Glo Plus assay format
EGFR(T790,L858R) = EGFR(T790,L858R) (Homo sapiens, UniProt P00533, L858R/T790M); test: as above; assay type: biochemical; details: Kinase Glo Plus assay format
Chain of EGFR(T790,L858R) (P00533 669-1210 T790M/L858R limits assumed): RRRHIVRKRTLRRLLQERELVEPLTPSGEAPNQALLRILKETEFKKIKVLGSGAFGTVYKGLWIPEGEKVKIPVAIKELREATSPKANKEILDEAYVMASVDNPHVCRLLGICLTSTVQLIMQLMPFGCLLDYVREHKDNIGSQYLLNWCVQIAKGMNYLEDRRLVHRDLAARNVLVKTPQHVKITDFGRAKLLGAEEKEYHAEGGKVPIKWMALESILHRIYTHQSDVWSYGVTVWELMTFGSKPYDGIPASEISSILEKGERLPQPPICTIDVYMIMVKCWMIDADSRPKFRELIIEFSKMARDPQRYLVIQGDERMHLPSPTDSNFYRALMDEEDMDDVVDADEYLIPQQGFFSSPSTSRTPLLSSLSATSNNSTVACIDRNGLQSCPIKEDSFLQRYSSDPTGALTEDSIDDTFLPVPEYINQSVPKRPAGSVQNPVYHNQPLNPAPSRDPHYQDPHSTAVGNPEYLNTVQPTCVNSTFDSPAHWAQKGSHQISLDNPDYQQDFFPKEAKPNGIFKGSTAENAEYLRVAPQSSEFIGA

FGFR1 = FGFR1 (Homo sapiens, UniProt P11362); test: as above; assay type: biochemical; details: Kinase Glo Plus assay format
Chain of FGFR1 (P11362 22-822): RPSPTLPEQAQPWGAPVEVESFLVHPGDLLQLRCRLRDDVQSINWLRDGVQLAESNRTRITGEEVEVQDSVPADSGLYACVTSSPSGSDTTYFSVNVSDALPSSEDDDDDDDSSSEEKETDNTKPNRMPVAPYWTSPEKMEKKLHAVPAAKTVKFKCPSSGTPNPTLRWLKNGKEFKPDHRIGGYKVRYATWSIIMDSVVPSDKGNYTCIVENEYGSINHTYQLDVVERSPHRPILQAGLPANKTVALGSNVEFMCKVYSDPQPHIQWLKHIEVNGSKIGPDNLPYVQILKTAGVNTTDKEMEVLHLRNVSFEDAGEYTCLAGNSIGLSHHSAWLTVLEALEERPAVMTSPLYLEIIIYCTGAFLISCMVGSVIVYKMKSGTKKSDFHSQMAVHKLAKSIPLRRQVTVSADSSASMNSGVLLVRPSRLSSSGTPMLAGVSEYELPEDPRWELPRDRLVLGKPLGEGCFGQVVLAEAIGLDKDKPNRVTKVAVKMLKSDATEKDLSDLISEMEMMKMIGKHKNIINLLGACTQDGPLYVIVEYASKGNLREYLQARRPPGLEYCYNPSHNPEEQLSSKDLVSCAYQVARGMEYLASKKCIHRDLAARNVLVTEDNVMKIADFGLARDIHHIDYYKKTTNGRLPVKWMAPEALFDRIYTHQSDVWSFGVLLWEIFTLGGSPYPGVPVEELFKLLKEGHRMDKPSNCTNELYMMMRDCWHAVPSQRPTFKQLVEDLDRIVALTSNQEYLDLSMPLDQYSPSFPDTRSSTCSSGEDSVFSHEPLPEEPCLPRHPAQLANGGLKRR

[13] = Body weight in liver orthotopic mouse model; assay type: in vivo, mice
TrkB signaling = test: BDNF-induced TrkB signaling in HepG2 cells (Western blot); assay type: cell-based, human
Description: (§5) Data are shown as the mean ± S.D. and are representative of three independent experiments. ** p < 0.01, *** p < 0.001.
(b) HepG2 cells were treated with BDNF (10 ng/ml) alone or BDNF (10 ng/ml) and HGF (10 ng/ml) for the indicated time and the activation of TrkB signaling pathway was examined. […] The activation of the TrkB and c-Met signaling pathways were examined. […] The activation of the TrkB and c-Met signaling pathways were examined. […] Data are shown as the mean ± S.D. and are representative of three independent experiments. **p < 0.01, ***p < 0.001
as §3

SMMC-7721 xenograft = SMMC-7721 xenograft mice; assay type: in vivo
Description: (§2) Tumor growth was measured using vernier calipers, and tumor volume (mm^3) was calculated as (L × W × H)/2. When the mean tumor volume reached 200 mm^3, the mice were randomized into four groups and treatment was initiated. Indo5 in DMSO was injected intraperitoneally into the mice once daily at the indicated doses. Tumor volume were recorded every 3 days until the study was terminated. The mice were sacrificed after 21 days of treatment. Solid tumors were excised and weighed, and the inhibition rate was calculated as […].

wild-type Ba/F3 cells = test: Proliferation of wild-type Ba/F3 cells
MHCC97H = test: cells; details: Homo sapiens, 72 h, read-out: IC50 (μM) ± SD
Description: as §1

MHCC97L = test: cells; details: Homo sapiens, 72 h, read-out: IC50 (μM) ± SD
Description: as §1

[14] = system: MHCC97H orthotopic tumors
From the text: For the orthotopic xenograft mouse model, MHCC97H cells were inoculated subcutaneously in the right flank of each SCID mouse. When the tumor volumes reached approximately 1 cm^3, the mice were sacrificed, and the tumors were isolated and cut into 1 mm^3 pieces. The mice were anesthetized by an intraperitoneal injection of 1% sodium pentobarbital solution. A 1-cm longitudinal skin incision was made on the right upper axillary region of the abdomen of the mouse, the peritoneum was opened and the liver was exposed. The liver was punctured by a needle, and a 1 mm^3 tumor piece was implanted. The liver was put back into the abdominal cavity gently, and the surgical opening was closed using a 5–0 surgical suture.
The tumor weights were measured (b). […] Tumor-bearing mice were sacrificed when they became moribund.

MDCK cells [15] = test: HGF-stimulated MDCK cell scattering; details: Indo5 pretreated 2 h, HGF 20 ng/ml 12 h, dose-dependent
Description: Cells were plated into 96-well plates (1.5 × 10^3 cells/well) and grown until small colonies appeared. […] After 24h incubation, cells were fixed with 90% methanol for 30min at room temperature and stained by 1% crystal violet. Scattered clones were photographed.

Ba/F3-Tpr-Met cells [16] = details: 0.5 μM Indo5
AXL = AXL (Homo sapiens, UniProt P30530); test: In vitro kinase activity assay (HDB Kinase Selectivity Profiling); assay type: biochemical; details: Kinase Glo Plus assay format
Chain of AXL (P30530 26-894): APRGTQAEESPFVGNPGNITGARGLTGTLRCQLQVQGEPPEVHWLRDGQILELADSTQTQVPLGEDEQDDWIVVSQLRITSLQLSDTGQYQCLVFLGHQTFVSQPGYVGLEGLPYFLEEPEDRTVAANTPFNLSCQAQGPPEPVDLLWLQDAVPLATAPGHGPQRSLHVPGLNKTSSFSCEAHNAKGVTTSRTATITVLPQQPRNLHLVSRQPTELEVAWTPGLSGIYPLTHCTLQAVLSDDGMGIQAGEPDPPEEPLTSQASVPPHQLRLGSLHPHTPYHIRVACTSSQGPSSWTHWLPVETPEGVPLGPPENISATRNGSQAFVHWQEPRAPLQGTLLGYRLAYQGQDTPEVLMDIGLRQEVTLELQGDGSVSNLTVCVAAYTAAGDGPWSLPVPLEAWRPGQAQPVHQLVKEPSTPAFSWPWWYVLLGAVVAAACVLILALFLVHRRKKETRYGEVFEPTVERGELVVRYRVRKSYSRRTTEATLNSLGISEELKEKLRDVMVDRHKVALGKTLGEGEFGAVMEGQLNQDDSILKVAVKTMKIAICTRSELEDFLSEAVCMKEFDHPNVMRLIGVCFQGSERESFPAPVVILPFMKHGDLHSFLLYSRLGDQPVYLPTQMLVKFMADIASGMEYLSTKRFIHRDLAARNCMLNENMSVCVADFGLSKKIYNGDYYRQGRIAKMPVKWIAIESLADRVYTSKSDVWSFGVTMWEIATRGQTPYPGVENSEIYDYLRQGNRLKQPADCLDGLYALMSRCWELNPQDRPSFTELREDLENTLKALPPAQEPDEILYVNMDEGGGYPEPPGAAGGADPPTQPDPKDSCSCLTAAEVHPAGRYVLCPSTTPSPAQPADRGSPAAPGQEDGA

Ephb1 = Ephb1 (Homo sapiens, UniProt P54762); test: In vitro kinase activity assay (Caliper assay format); assay type: biochemical
HCC metastasis in lung = test: Lung metastasis in mice bearing MHCC97H orthotopic tumors (H&E); assay type: in vivo; details: Indo5 treatment
TrkA signaling = test: NGF-induced TrkA signaling in SK-N-SH cells (Western blot); details: 1 μM Indo5, pretreated 2 h, NGF 500 ng/ml 5 min
Description: as §5, §3

[17] = system: EGF receptor-mediated signaling pathway; test: EGF receptor-mediated signaling pathway in A549 cells (Western blot); details: A549, Indo5 pretreated 2 h, 100 ng/ml EGF 5 min
SK-N-SH xenograft = SK-N-SH xenograft mice; assay type: in vivo
Description: as §2

[18] = system: VEGF receptor-mediated signaling pathway; test: VEGF receptor-mediated signaling pathway in A549 cells (Western blot); details: A549, Indo5 pretreated 2 h, 100 ng/ml VEGF 5 min
PDGFRα = PDGFRα (Homo sapiens, UniProt P16234); test: In vitro kinase activity assay (HDB Kinase Selectivity Profiling); assay type: biochemical; details: Kinase Glo Plus assay format
[19] = Body weight in HepG2 xenograft nude mice model; assay type: in vivo; details: Indo5 vs control groups
HepG2 cells [20] = test: HepG2 cell growth with Crizotinib and GNF-5837; assay type: cell-based; details: Homo sapiens, read-out: growth inhibition rate
Description: The inhibition rate was calculated (right panel).

[21] = Crizotinib (16 mg/kg) or GNF-5837 (16 mg/kg) alone or combined, intraperitoneally, 3 weeks

Compound: Cc1ccccc1NS(=O)(=O)c1ccc2c(c1)/C(=C/c1nc3ccccc3[nH]1)C(=O)N2 [Indo5, 3-(1H-benzimidazol-2-methylene)-5-(2-methylphenylaminosulfo)-2-indolone]
- IC50 [1]: 1.11 to 1.87 µM
- IC50 (RET): > 10 µM
- BDNF-induced growth (Ba/F3-TrkB cells): inhibited
- IC50 [2]: 2.98 to 9.19 µM
- rate of tumor growth inhibition ([3]; orthotopic HepG2, 8 mg/kg intraperitoneally once daily for 3 weeks): approximately 49%
- rate of tumor growth inhibition ([3]; orthotopic HepG2, 16 mg/kg intraperitoneally once daily for 3 weeks): 61.2%
- overall health of the animals ([3]; orthotopic HepG2 model, Indo5 vs control, data not shown): not adversely affected
- IC50 (IGF1R): > 10 µM
- IC50 (C-KIT): > 10 µM
- effect on cell proliferation (HepG2 cells [4]): weak inhibitory effect
- IC50 (FLT1): > 10 µM
- HGF-induced c-Met signaling pathway activation (c-Met signaling pathway; HepG2, 0.5 μM Indo5, pretreated 2 h, HGF 20 ng/ml 5 min): dramatically suppressed
- IC50 (EPHA1): > 10 µM
- IC50 [5]: > 30 µM
- effect on cell proliferation (MDCK cells [6]): No obvious effect
- HGF-induced cell migration (HepG2 cells [7]): significantly suppressed
- IC50 (C-KIT(v654A)): > 10 µM
- half-life (Half-life in plasma): 5 min
- tumor cells in liver tissue (histological examination) (orthotopic tumors): no obvious tumor cells
- IC50 (HCC-LM3): 1.873 ± 0.012 µM
- IC50 (SMMC-7721): 3.598 ± 0.022 µM
- IC50 (SK-N-SH): 2.982 ± 0.019 µM
- IC50 (MRC-5): > 100 µM
- IC50 (BEL-7402): 5.605 ± 0.017 µM
- IC50 (NCI-H460): 9.185 ± 0.035 µM
- IC50 (L02): 32.52 ± 0.075 µM
- IC50 (A549): 1.62 ± 0.008 µM
- BDNF-induced cell migration (HepG2 cells [8]): suppressed
- inhibition rate (tumor weight) ([9]; Indo5 16 mg/kg, intraperitoneally once daily, 21 days): 65.2%
- cytotoxicity (mouse hepatocytes; 0.5 μM Indo5, 72 h, data not shown): no cytotoxicity was observed
- HGF-induced cell proliferation (mouse hepatocytes; mouse hepatocytes, HGF 20 ng/ml 48 h, MTS): dose-dependently inhibited
- HGF-induced vasculature formation in vivo [10]: dramatically blocked
- apoptosis in tumor tissues (TUNEL staining) [11]: increased apoptosis
- IC50 (InsR): > 10 µM
- IC50 (Ba/F3-Tpr-Met cells [12]): 0.618 µM
- IC50 (EGFR): > 10 µM
- IC50 (EGFR(T790,L858R)): > 10 µM
- IC50 (FGFR1): > 10 µM
- body weight change ([13]; liver orthotopic mouse model, Indo5 up to highest dose (48 mg/kg), 48 mg/kg): no obvious weight changes; also recorded: not associated with loss of body weight
- BDNF-induced TrkB signaling (TrkB signaling; HepG2, Indo5 pretreated 2 h, BDNF 50 ng/ml 5 min, dose-dependent): decreased
- xenograft tumor growth (SMMC-7721 xenograft): dose-dependent inhibitory effect
- effect on cell proliferation (wild-type Ba/F3 cells): no obvious effect
- IC50 (MHCC97H): 1.11 ± 0.018 µM
- IC50 (MHCC97L): 1.28 ± 0.016 µM
- survival rate ([14]; 24 mg/kg Indo5 once daily by oral gavage): 40%
- overall survival rate ([14]; 48 mg/kg Indo5 once daily by oral gavage): 77.7%
- HGF-stimulated cell scattering (MDCK cells [15]): blocked
- cell apoptosis (Ba/F3-Tpr-Met cells [16]): markedly induced cell apoptosis
- IC50 (AXL): > 10 µM
- IC50 (Ephb1): > 10 µM
- HCC metastasis in lung (HCC metastasis in lung): dramatic decrease
- NGF-induced TrkA signaling (TrkA signaling): almost completely inhibited
- activation of EGF receptor-mediated signaling pathway [17]: no effect
- xenograft tumor growth (SK-N-SH xenograft): dose-dependent inhibitory effect
- activation of VEGF receptor-mediated signaling pathway [18]: no effect
- IC50 (PDGFRα): > 10 µM
- mouse body weights [19]: almost unchanged

Compound: Cc1ccc(NC(=O)Nc2cc(C(F)(F)F)ccc2F)cc1Nc1ccc2c(c1)NC(=O)/C2=C\c1ccc[nH]1 [GNF-5837]
- inhibition at 2 µM (HepG2 cells [20]; HepG2, 2 μM GNF-5837, 48 h): 14%
- HGF-induced c-Met signaling pathway activation (c-Met signaling pathway; HepG2, GNF-5837 (4 μM) pretreated 2 h, HGF 20 ng/ml): suppressed
- inhibition rate (tumor weight) [9, 21]: 21%

Compound: CNC(=O)c1cc(Oc2ccc(NC(=O)Nc3ccc(Cl)c(C(F)(F)F)c3)cc2)ccn1 [Sorafenib, reference compound]
- body weight loss ([13]; sorafenib treatment, mice): up to 10%
- survival rate ([14]; 50 mg/kg Sorafenib once daily by oral gavage): 44%

Compound: C[C@@H](Oc1cc(-c2cnn(C3CCNCC3)c2)cnc1N)c1c(Cl)ccc(F)c1Cl [Crizotinib]
- inhibition at 0.1 µM (HepG2 cells [20]; HepG2, 100 nM Crizotinib, 48 h): 30%
- inhibition rate (tumor weight) [9, 21]: 28%
- BDNF-induced TrkB signaling pathway activation (TrkB signaling; HepG2, Crizotinib (0.5 μM) pretreated 2 h, BDNF 50 ng/ml): significant attenuation
